# Where two headings read alike, the source gives them in different places.
# Tests used:
# [1] = Minimum inhibitory concentration (growth at drug concentrations) and effect of para-aminobenzoic acid (PABA), Table II; assay type: cell-based
# Pseudomonas = assay: Minimum inhibitory concentrations vs Pseudomonas, Table V; assay type: cell-based
SMILES,Growth (minimum inhibitory concentration series) ([1]; 0.05 μ mole/ml drug),Growth (minimum inhibitory concentration series) ([1]; 0.1 μ mole/ml drug),Growth (minimum inhibitory concentration series) ([1]; 0.5 μ mole/ml drug),Growth (minimum inhibitory concentration series) ([1]; 1.0 μ mole/ml drug),PAB to Block (Pseudomonas),"MIC (Pseudomonas; Pseudomonas, read-out: Minimum Inhibitory Concentration vs Pseudomonas)",Growth (minimum inhibitory concentration series) ([1]; 0.4 μ mole/ml drug),"Growth, drug + PABA ([1]; 0.5 μ mole/ml drug + PABA 0.05)",Growth (minimum inhibitory concentration series) ([1]; 0.6 μ mole/ml drug),Growth (minimum inhibitory concentration series) ([1]; 0.8 μ mole/ml drug),"Growth, drug + PABA ([1]; 1.0 μ mole/ml drug + PABA 0.1)",Growth (minimum inhibitory concentration series) ([1]; 2.0 μ mole/ml drug),"Growth, drug + PABA ([1]; 2.0 μ mole/ml drug + PABA 0.01)","Growth, drug + PABA ([1]; 2.0 μ mole/ml drug + PABA 0.1)","Growth, drug + PABA ([1]; 2.0 μ mole/ml drug + PABA 0.2)",Minimum Inhibitory Concentration vs Pseudomonas (Pseudomonas; listed as Na Sulfadiazine),PAB to Block (Pseudomonas; listed as Na Sulfadiazine)
"CC(=O)[O-].CC(=O)[O-].[Zn+2] [Zinc Acetate, zinc acetate]",+,+,+,+,,,,,,,,,,,,,
NCc1ccc(S(N)(=O)=O)cc1 [Sulfamylon],,,,,neg.,500 µM,,,,,,,,,,,
"Nc1ccc(S(=O)(=O)Nc2ncccn2)cc1 [Sodium Sulfadiazine, sodium sulfadiazine]",,+,+,-,,,+,+,+,-,+,-,+,+,+,80 μM/L,1/200

# Reference: patent US4049802A (Research Corporation, priority 1975, dated 1977)
